For 60 compounds, IC50 results are on record in US20230348454A1, “COMPOUNDS AS MODULATORS OF BIS-PHOSPHOGLYCERATE MUTASE FOR THE TREATMENT OF SICKLE CELL DISEASE” (Genzyme Corporation, priority 2020, published 2023).

The target in the assay is T1, hBPGM (Homo sapiens, UniProt P07738).
T1 sequence (P07738 1-259): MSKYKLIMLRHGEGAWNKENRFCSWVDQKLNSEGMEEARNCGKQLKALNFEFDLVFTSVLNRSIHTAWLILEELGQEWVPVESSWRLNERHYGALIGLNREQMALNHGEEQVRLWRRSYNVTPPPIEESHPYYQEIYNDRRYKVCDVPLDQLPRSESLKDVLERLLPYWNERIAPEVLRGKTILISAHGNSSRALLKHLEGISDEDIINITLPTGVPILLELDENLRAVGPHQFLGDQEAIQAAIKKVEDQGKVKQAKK
Kind of assay: BPGM synthase assay. It counts as biochemical. To be noted: Table 6; read-out: huBPGM: synthase Enzyme IC50. As to the method: The following materials were used in this assay: deionized water; Bisphosphoglycerate mutase (BPGM; Standard Buffer: 50 mM Tris, 0.01% Tween 20, pH 7.4); BPGM Reaction Buffer (50 mM Tris, 0.01% Tween 20, 3.23 mM KH2PO4, pH 7.4); dithiothreitol (DTT; Stock solution: 100 mM in Standard Buffer); 384-Well Black Assay Plate (Corning, P/N 3575); DMSO; BPGM Stock Solution (500 nM in BPGM Standard Buffer); Glyceraldehyde 3-phosphate dehydrogenase (GAPDH; Stock Solution: 40 U/mL in 20 mM Tris-HCL Buffer with 20% Glycerol, 1 mM EDTA, 1 mM DTT); Glyceraldehyde 3-phosphate (GAP; Stock Solution: 20 mM in BPGM Standard Buffer); 3-PG Stock Solution (500 μM in BPGM Standard Buffer); Nicotinamide adenine dinucleotide (NAD; Stock Solution: 50 mM in BPGM Standard Buffer); Koningic Acid (1 mM Stock in DMSO); Resazurin Stock Solution (10 mM in DMSO); Diaphorase Stock Solution (40 U/mL in BPGM Standard Buffer); DTT Reaction Buffer (1 mM DTT in BPGM Reaction Buffer); Enzyme Solution (5 nM BPGM, 0.4 U/mL GAPDH in DTT Reaction Buffer); GAPDH Solution (0.4 U/mL GAPDH in DTT Reaction Buffer); Substrate Solution (2 mM NAD, 20 μM 3PG, 800 μM GAP in DTT Reaction Buffer); and Resazurin Solution (5 U/mL Diaphorase, 500 μM Resazurin in BPGM Standard Buffer).
To the assay plate was added Enzyme Solution (20 uL) to columns 2-22 and 24 of the assay plate. To columns 1 and 23 was added GAPDH Solution (20 uL). A separate compound plate was prepared at the desired concentrations and all wells were normalized with 5% DMSO. The compound plate was incubated for 30 minutes at RT. Next, the substrate solution (20 μL) was dispensed to all reaction wells and the plate was incubated for 60 minutes at RT. Koningic acid (1 μL) was added and the plate was incubated for 10 minutes at RT. During this time period, the NADH fluorescence was read at ex: 360/em: 460. Next, Resazurin Solution (10 μL) was added to all reaction wells and the plate was incubated for 30 minutes at RT. The resorufin fluorescence was then read at ex:544/em:590.

In general, IC50 refers to the point on the concentration scale where inhibition reaches its midpoint. On to `Cc1nc(CNC(=O)C2CN(C)C2)sc1-c1csc(-c2cc(F)c(O)c(F)c2F)n1` [Example 83], for which the IC50 is over 25000 nM.
Take `Cc1nc(CNc2ncc(C(F)(F)F)cn2)sc1-c1csc(-c2cc(F)c(O)c(F)c2F)n1` [Example 84]: the IC50 is over 25000 nM.
As for `Cc1nc(COC(=O)N2CCC(O)C2)sc1-c1cccc(-c2cc(F)c3nn[nH]c3c2F)n1` (stereo not drawn) [Example 85], the IC50 was determined as 21 nM.
The value for `Cc1nc(C)c(-c2csc(-c3cc(F)c4[nH]nnc4c3F)n2)s1` [Example 86] was 140 nM; that for `Cc1nc(CO)sc1-c1csc(-c2cc(F)c3[nH]nnc3c2F)n1` [Example 87] was 380 nM; that for `Cc1nc(COc2cccnn2)sc1-c1cccc(-c2cc(F)c3nn[nH]c3c2F)n1` [Example 88] was 24 nM.
Regarding `Cc1nc(CNc2cccnn2)sc1-c1csc(-c2cc(F)c(O)c(F)c2F)n1` [Example 89], the concentration for half-maximal inhibition (IC50) was 280 nM.
The value for `Cc1nc(C)c(-c2cccc(-c3cc(F)c4nn[nH]c4c3F)n2)s1` [Example 90] was 340 nM; that for `Cc1nc(CO)sc1-c1cccc(-c2cc(F)c3nn[nH]c3c2F)n1` [Example 91] was 640 nM; that for `Cc1nc(CNC(=O)N2CCC(O)C2)sc1-c1csc(-c2cc(F)c(O)c(F)c2F)n1` (stereo not drawn) [Example 92] was 2300 nM.
For the compound `Cc1nc(CNC(=O)C2CCN(C)CC2)sc1-c1csc(-c2cc(F)c(O)c(F)c2F)n1` [Example 93], the IC50 stood at 9000 nM.
The value for `Cc1nc(COCC(=O)C2CCNCC2)sc1-c1csc(-c2cc(F)c(O)c(F)c2F)n1` [Example 94] was over 25000 nM.
The value for `Cc1nc(COc2ncccn2)sc1-c1cccc(-c2ccc(C#N)c(O)c2F)n1` [Example 105] was 220 nM; that for `Cc1nc(CNC(=O)c2ccn(C)n2)sc1-c1csc(-c2cc(F)c(O)c(F)c2F)n1` [Example 106] was 330 nM.
`Cc1nc(CNC(=O)N(C)C)sc1-c1csc(-c2cc(F)c3[nH]nnc3c2)n1` [Example 107]: the IC50 was determined as 3200 nM.
The value for `Cc1nc(CNC(=O)N2CCN(C)CC2)sc1-c1csc(-c2cc(F)c(O)c(F)c2F)n1` [Example 108] was 14000 nM; that for `Cc1nc(COC(=O)N(C)C)sc1-c1csc(-c2cc(F)c3[nH]nnc3c2)n1` [Example 109] was 160 nM.
The value for `Cc1nc(COc2ccccn2)sc1-c1cccc(-c2cc(F)c3nn[nH]c3c2F)n1` [Example 110] was 160 nM; that for `Cc1nc(CNC(=O)C(C)(C)C)sc1-c1csc(-c2cc(F)c(O)c(F)c2F)n1` [Example 111] was 570 nM; that for `Cc1nc(CNC(=O)N(C)C)sc1-c1csc(-c2cc(F)c(O)c(F)c2F)n1` [Example 112] was 650 nM.
As to `Cc1nc(CNC(=O)c2cnn(C)c2)sc1-c1csc(-c2cc(F)c(O)c(F)c2F)n1` [Example 113], the IC50 was determined as 530 nM.
The value for `Cc1nc(C)c(-c2csc(-c3cc(F)c4[nH]nnc4c3)n2)s1` [Example 114] was 1200 nM; that for `Cc1nc(COCC(=O)N2CCNCC2)sc1-c1csc(-c2cc(F)c(O)c(F)c2F)n1` [Example 115] was 4400 nM; that for `Cc1nc(CO)sc1-c1csc(-c2cc(F)c(O)c(F)c2F)n1` [Example 116] was 6500 nM.
The value for `Cc1nc(COc2ncccn2)sc1-c1cccc(-c2ccc3[nH]c(=O)oc3c2)n1` [Example 117] was over 25000 nM.
The value for `Cc1nc(COc2nccc(C(=O)O)n2)sc1-c1cccc(-c2cc(F)c3nn[nH]c3c2)n1` [Example 118] was 28 nM; that for `Cc1nc(C)c(-c2csc(-c3cc(F)c(O)c(F)c3F)n2)s1` [Example 119] was 2900 nM.
On to `Cc1nc(COc2ccccn2)sc1-c1cccc(-c2cc(O)c(C#N)c(F)c2)n1` [Example 120], for which the IC50 was found to be 1500 nM.
For `Cc1nc(COc2ccccn2)sc1-c1cccc(-c2cc(F)c(O)c(C#N)c2)n1` [Example 121], the IC50 came to 3300 nM.
The value for `COC(=O)NCc1nc(C)c(-c2cccc(-c3cc(F)c4nn[nH]c4c3F)n2)s1` [Example 122] was 33 nM; that for `Cc1nc(COCC(=O)N2CCN(C)CC2)sc1-c1csc(-c2cc(F)c(O)c(F)c2F)n1` [Example 123] was 1600 nM.
Take `Cc1nc(COCC(=O)N2CCC(O)C2)sc1-c1csc(-c2cc(F)c(O)c(F)c2F)n1` (stereo not drawn) [Example 124]: the IC50 turned out to be 6300 nM.
The value for `Cc1nc(COc2ncccn2)sc1-c1cccc(-c2ccc3[nH]c(=O)[nH]c3c2)n1` [Example 128] was 6700 nM.
The value for `Cc1nc(COc2ncccn2)sc1-c1cccc(-c2ccc3c(c2)C(=O)NC3=O)n1` [Example 132] was 8100 nM.
The value for `Cc1nc(COc2ncccn2)sc1-c1cccc(-c2cc(F)c(O)c(F)c2C)n1` [Example 133] was 4400 nM; that for `Cc1nc(COc2ncccn2)sc1-c1cccc(-c2ccc([N+](=O)[O-])c(F)c2)n1` [Example 134] was over 25000 nM.
Consider `Cc1nc(CNC(=O)C(C)(C)C)sc1-c1cccc(-c2cc(F)c(O)c(F)c2F)c1` [Example 146], for which the half-inhibitory concentration (IC50) is 13000 nM.
The value for `Cc1nc(COc2ncccn2)sc1-c1cccc(-c2ccn3c(O)nnc3c2)n1` [Example 149] was 4500 nM.
The value for `Cc1nc(COc2ncccn2)sc1-c1cccc(-c2cc(F)c3nnn(C)c3c2)n1` [Example 150] was over 99000 nM; that for `Cc1nc(COc2ncccn2)sc1-c1cccc(-c2ccc(-c3n[nH]c(=O)o3)cc2)n1` [Example 161] was over 25000 nM; that for `Cc1nc(COc2ncccn2)sc1-c1cccc(-c2ccc(-n3cn[nH]c3=O)cc2)n1` [Example 162] was over 25000 nM.
The value for `Cc1nc(C)c(-c2csc(-c3cc(O)c(NS(=O)(=O)c4ccccc4)cc3F)n2)s1` [Example 180] was over 25000 nM; that for `Cc1nc(CNC(=O)C2CCN(C)CC2)sc1-c1csc(-c2cc(F)c3[nH]nnc3c2)n1` [Example 182] was 1900 nM; that for `COC(=O)NCc1nc(C)c(-c2csc(-c3cc(O)c(NS(C)(=O)=O)cc3F)n2)s1` [Example 183] was over 25000 nM.
Turning to `COC(=O)NCc1nc(C)c(-c2csc(-c3cc(O)c(-c4nnn[nH]4)cc3F)c2)s1` [Example 184], the IC50 worked out at 250 nM.
The value for `COC(=O)NCc1nc(C)c(-c2csc(-c3cnc(O)nc3)n2)s1` [Example 193] was 23000 nM.
The value for `Cc1nc(COc2ccccn2)sc1-c1csc(-c2cc(F)c(O)c(F)c2)c1` [Example 198] was 5200 nM; that for `Cc1nc(COc2ccccn2)sc1-c1cccc(-c2cc(F)c(O)c(F)c2)n1` [Example 199] was 6500 nM; that for `COC(=O)NCc1nc(C)c(-c2csc(-c3cnc(O)c(F)c3)n2)s1` [Example 200] was 12000 nM.
The value for `COC(=O)NCc1nc(C)c(-c2csc(-c3cc(O)c(S(N)(=O)=O)cc3F)n2)s1` [Example 202] was over 25000 nM; that for `COC(=O)NCc1nc(C)c(-c2csc(-c3ccc(C4SC(=O)NC4=O)cc3)n2)s1` (stereo not drawn) [Example 204] was over 25000 nM; that for `Cc1nc(C)c(-c2cccc(-c3ccc(C(=O)NS(=O)(=O)c4ccccc4)cc3)n2)s1` [Example 209] was 3300 nM.
Consider `Cc1nc(Cc2ccccn2)sc1-c1cccc(-c2ccc(C(=O)NS(C)(=O)=O)cc2)c1` [Example 210], for which the IC50 is 7500 nM.
The value for `Cc1nc(Cc2ccccn2)sc1-c1cccc(-c2ccc(C(=O)NS(=O)(=O)c3ccccc3)cc2)c1` [Example 211] was 740 nM; that for `Cc1nc(COc2ncccn2)sc1-c1cccc(-c2ccc3oc(=O)[nH]c3c2)n1` [Example 212] was 2600 nM.
The value for `Cc1nc(C)c(COc2cc(F)c3nn[nH]c3c2F)s1` [Example 215] was over 25000 nM.
The value for `Cc1ncsc1-c1cccc(-c2cc(F)c3[nH]nnc3c2F)n1` [Example 216] was 5400 nM.
For `Cc1nc(C(=O)NC2CCC(O)CC2)sc1-c1cccc(-c2cc(F)c3[nH]nnc3c2F)n1` (stereo not drawn) [Example 217], the IC50 worked out at 120 nM.
The value for `Cc1nc(COCC(C)(C)O)sc1-c1cccc(-c2cc(F)c(O)c(F)c2F)n1` [Example 218] was 410 nM; that for `Cc1nc(COCC(C)(C)O)sc1-c1cccc(-c2cc(F)c3nn[nH]c3c2)n1` [Example 219] was 58 nM.
